Literature values in US20220288091A1, “Method for Improving Insulin Sensitivity” (priority 2019, published 2022).

Columns and labels:
Conditions in all cases: Miner et al.; cited from earlier work
[1] = biological target: T1, receptors for mineralocorticoids (Homo sapiens, UniProt P08235)
T1 sequence (P08235 1-984): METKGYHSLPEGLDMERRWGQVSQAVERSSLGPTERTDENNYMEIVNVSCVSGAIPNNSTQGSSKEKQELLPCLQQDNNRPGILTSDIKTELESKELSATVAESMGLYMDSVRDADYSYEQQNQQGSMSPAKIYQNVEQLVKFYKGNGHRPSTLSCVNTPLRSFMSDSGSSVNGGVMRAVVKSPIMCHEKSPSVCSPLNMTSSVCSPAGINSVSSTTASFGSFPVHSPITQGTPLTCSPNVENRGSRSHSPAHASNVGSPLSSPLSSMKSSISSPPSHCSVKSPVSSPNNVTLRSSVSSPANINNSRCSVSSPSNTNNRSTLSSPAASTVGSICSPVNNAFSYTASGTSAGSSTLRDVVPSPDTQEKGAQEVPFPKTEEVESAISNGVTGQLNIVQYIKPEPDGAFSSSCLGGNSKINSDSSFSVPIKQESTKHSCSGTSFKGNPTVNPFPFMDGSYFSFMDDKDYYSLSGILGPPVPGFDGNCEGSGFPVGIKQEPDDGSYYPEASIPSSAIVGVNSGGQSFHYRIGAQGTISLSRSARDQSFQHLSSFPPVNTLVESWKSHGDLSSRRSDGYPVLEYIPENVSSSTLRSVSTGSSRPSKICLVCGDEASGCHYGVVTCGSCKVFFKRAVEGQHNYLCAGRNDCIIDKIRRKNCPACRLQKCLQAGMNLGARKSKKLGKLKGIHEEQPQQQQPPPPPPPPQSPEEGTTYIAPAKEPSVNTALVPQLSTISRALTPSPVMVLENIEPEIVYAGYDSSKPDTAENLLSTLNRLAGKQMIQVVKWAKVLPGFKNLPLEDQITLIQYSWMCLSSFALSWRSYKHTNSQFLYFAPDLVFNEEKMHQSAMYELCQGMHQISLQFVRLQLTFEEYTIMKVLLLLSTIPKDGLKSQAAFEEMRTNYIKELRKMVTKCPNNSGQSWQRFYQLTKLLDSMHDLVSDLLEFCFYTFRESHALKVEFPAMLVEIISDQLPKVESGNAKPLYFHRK

receptors for estrogens = test system: receptors for estrogens
receptors for androgens = biological target: T2, receptors for androgens (Homo sapiens, UniProt P10275)
T2 sequence (P10275 1-920): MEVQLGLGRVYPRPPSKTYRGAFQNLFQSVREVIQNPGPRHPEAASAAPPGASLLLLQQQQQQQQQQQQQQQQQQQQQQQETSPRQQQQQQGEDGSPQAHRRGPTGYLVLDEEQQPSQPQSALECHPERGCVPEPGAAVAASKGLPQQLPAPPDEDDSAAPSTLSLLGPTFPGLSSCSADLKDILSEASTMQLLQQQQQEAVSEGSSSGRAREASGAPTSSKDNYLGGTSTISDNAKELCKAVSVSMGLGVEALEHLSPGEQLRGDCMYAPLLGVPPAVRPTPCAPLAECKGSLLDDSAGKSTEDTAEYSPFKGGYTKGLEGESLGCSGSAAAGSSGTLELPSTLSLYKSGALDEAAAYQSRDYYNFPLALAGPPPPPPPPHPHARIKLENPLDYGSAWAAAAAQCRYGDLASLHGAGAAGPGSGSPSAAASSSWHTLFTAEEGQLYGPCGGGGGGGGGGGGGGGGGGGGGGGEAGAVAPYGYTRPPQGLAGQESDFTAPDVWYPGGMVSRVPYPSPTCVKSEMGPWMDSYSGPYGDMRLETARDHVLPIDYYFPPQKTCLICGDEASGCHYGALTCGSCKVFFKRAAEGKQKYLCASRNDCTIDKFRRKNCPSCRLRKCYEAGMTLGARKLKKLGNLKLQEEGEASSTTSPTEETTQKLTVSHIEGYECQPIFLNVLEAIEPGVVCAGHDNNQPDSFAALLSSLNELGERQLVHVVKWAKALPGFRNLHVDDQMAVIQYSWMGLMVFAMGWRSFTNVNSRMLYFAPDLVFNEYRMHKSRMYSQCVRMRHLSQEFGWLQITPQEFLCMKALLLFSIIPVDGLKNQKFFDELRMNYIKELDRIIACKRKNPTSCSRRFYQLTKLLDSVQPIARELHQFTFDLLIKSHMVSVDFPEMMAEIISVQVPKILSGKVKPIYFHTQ

GR = biological target: T3, GR (Homo sapiens, UniProt P04150)
T3 sequence (P04150 1-777): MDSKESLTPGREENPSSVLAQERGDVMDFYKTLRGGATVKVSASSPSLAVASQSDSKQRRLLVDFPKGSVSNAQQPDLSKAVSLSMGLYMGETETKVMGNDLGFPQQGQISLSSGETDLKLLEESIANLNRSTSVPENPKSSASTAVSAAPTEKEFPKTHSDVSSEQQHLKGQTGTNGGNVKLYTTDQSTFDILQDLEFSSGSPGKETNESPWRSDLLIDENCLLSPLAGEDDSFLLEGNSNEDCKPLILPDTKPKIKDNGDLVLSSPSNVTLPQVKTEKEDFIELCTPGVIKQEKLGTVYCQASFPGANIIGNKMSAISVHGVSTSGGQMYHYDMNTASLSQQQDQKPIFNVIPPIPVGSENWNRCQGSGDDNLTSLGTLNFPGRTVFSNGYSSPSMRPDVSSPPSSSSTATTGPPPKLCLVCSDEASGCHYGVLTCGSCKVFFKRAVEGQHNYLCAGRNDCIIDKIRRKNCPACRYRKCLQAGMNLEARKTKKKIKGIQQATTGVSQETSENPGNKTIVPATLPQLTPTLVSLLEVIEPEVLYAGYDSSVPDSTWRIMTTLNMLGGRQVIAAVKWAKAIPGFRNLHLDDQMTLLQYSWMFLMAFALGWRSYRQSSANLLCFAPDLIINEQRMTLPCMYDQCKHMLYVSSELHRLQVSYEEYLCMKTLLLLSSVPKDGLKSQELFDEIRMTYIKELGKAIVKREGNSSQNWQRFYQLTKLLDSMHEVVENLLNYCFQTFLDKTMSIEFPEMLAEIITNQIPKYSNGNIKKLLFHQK

receptors for progestins = biological target: T4, receptors for progestins (Homo sapiens, UniProt P06401)
T4 sequence (P06401 1-933): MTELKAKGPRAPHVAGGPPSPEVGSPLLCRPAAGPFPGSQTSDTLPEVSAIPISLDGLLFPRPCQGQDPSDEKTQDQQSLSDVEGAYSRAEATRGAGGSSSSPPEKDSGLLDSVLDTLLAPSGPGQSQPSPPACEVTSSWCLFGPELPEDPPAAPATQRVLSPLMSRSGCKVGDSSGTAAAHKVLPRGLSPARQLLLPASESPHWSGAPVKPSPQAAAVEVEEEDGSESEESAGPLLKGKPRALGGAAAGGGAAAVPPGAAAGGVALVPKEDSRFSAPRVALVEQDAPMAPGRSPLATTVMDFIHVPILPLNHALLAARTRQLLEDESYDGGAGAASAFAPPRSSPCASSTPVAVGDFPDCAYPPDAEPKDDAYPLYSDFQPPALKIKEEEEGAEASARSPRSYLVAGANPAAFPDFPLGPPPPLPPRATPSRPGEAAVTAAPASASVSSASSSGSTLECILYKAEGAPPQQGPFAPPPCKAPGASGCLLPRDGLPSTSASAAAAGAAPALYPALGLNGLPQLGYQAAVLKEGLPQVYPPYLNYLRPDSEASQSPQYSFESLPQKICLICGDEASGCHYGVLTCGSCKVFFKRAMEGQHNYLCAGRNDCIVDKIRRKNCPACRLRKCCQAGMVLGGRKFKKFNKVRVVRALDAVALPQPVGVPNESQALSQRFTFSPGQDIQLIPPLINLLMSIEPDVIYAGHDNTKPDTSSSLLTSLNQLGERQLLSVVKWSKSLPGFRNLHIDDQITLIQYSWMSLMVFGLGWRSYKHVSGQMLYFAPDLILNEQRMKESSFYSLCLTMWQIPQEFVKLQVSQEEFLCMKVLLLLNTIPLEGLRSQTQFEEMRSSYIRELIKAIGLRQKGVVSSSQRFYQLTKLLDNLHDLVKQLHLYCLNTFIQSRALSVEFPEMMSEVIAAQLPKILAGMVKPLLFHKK

## CN(C)c1ccc(C(c2ccc(N(C)C)cc2)c2cc([N+](=O)[O-])ccc2Cl)cc1 [[bis(4-N,N-dimethylaminophenyl)(2-chloro-5-nitrophenyl)methane]]
[1]
  Affinity for mineralocorticoid receptor: no detectable affinity
Receptors for estrogens
  Affinity for estrogen receptor: no detectable affinity
Receptors for androgens
  Affinity for androgen receptor: no detectable affinity
GR
  Affinity for the GR: nanomolar affinity
Receptors for progestins
  Affinity for progestin receptor: no detectable affinity
